Reference: patent publication US20240252651A1, “METHOD OF DELIVERING NUCLEIC ACIDS INTO CELLS” (GUANGZHOU LIDE BIOMEDICINE TECHNOLOGY CO., LTD., priority 2021, published 2024)
Entries after “also recorded” stand apart in the source; their conditions may differ.

Key:
Hela cells [1] = assay: Transfection of GFP-expressing plasmid DNA in Hela cells (flow cytometer); assay type: cell-based, human; details: plasmid DNA 0.5 μg/well, material 0.25 to 8 μg/well (dosages per FIG. 4), 24 h
Protocol: In this experiment, with GFP-expressing plasmid DNA as a reporter gene, a gene transfection efficiency of a cationic lipid analog material in Hela cells was detected. A specific method was as follows:
Hela cells were inoculated in a 24-well plate and cultured in an incubator for 12 h; each of different cationic lipid analog materials (0.25 μg/well to 8 μg/well) was mixed with GFP-expressing plasmid DNA (0.5 μg/well) in 40 μL of a sodium acetate buffer (25 mM, pH 5.2), and resulting mixtures each were allowed to stand for 10 min and then diluted with 460 μL of an Opti-MEM medium to obtain plasmid DNA-loaded cationic lipid analog complex particle solutions; a medium for the Hela cells in the plate was removed, then the HeLa cells were washed once with PBS, and the complex particle solutions were added; and the cells were cultured for 24 h, and then a plasmid DNA transfection efficiency in cells was analyzed by a flow cytometer. A commercial gene transfection reagent Lipofectamine 2000 was adopted as a positive control.

DC 2.4 cells = assay: Transfection of eGFP-mRNA in DC 2.4 cells (FCM and LSCM); assay type: cell-based, mouse; details: mRNA 0.2 μg/well, material 0.25 to 2 μg/well (dosages per FIG. 7), 24 h, FIG. 7-9
Protocol: In this experiment, with eGFP-mRNA as model mRNA, an mRNA transfection efficiency of a cationic lipid analog material in DC 2.4 cells was detected. A specific operation method was as follows:
DC 2.4 cells were inoculated in a 48-well plate and cultured in an incubator for 12 h; each of different cationic lipid analog materials (0.25 μg/well to 2 μg/well) was mixed with cGFP-expressing mRNA (0.2 μg/well) in 20 μL of a sodium acetate buffer (25 mM, pH 5.2), and resulting mixtures each were allowed to stand for 10 min and then diluted with 230 μL of a Opti-MEM medium to obtain mRNA-loaded complex particle solutions; a medium for the […] were washed once with PBS, and the complex particle solutions were added; and the cells were cultured for 24 h, an mRNA transfection efficiency in cells was observed by FCM and LSCM. A commercial gene transfection reagent Lipofectamine 2000 was adopted as a positive control.

Hela cells [2] = assay: Transfection of luciferase-expressing plasmid DNA in HeLa cells (luciferase expression); assay type: cell-based, human; details: plasmid DNA 0.5 μg, 24 h, luciferase expression level, FIG. 5
Protocol: In this example, with luciferase-expressing plasmid DNA as a reporter gene, a gene transfection efficiency of a cationic lipid analog material in HeLa cells was detected. A specific operation method was as follows: Hela cells were inoculated in a 96-well plate and cultured in an incubator for 12 h; each of different cationic lipid analog materials was mixed with luciferase-expressing plasmid DNA (0.5 μg) in 40 μL of a sodium acetate buffer (25 mM, pH 5.2), and resulting mixtures each were allowed to stand for 10 min and then diluted with 460 μL of an Opti-MEM medium to obtain plasmid DNA-loaded cationic lipid analog complex particle solutions; a medium for the Hela cells in the plate was removed, then the Hela cells were washed once with PBS, and the complex particle solutions were added in a volume of 125 μL; the cells were cultured for 24 h, then a resulting culture supernatant was discarded, and the cells were fully lysed; and a substrate was added at 50 μl/well, and an expression level of luciferase was detected by a multi-mode microplate reader.

Hela cells [3] = assay: Cytotoxicity by MTT experiment in Hela cells; assay type: cell-based, human; details: material 1 μg/ml, 4 h exposure then 20 h culture, FIG. 11
Protocol: In this experiment, I2R2C16A1, I2R2C17A1, I2R2C18A1, I2R2C19A1, and I2R2C20A1 with high transfection efficiencies were selected as representative cationic lipid analog materials, and the toxicity of cationic lipid analogs for Hela cells was detected by an MTT experiment. A specific experimental method was as follows: HeLa cells were inoculated in a 96-well plate and cultured in an incubator for 12 h, then a medium was removed, and a cationic lipid analog material was added at 1 μg/ml; the cells were cultured for 4 h, then the material was washed away and replaced with DMEM; and the cells were cultured for 20 h, and finally cell viability was detected by MTT.

A549 cells (A549-Luc) = assay: siRNA transfection, luciferase gene silencing in A549-Luc cells; assay type: cell-based, human; details: final siRNA 100 nM, material 0.5 to 3 μg/well, 48 h, FIG. 10
Protocol: In this experiment, with I2R2C18-1A1, I2R3C18-1A1, I2R2C18-2A1, and I2R3C18-2A1 as representative cationic lipid analog materials, siRNA transfection and delivery effects of the cationic lipid analog materials were detected in A549 cells (A549-Luc). A specific operation method was as follows:
Luciferase-expressing A549 cells (A549-Luc) were inoculated in a 96-well plate and cultured in an incubator for 12 h; each of different materials (0.5 μg/well to 3 μg/well) was mixed with siRNA in 40 μL of a sodium acetate buffer (25 mM, pH 5.2), and resulting mixtures each were allowed to stand for 10 min and then diluted with 460 μL of an Opti-MEM medium to obtain siRNA-loaded complex particle solutions (final siRNA concentration was 100 nM); a medium for the A549-Luc cells in the plate was removed, then the A549-Luc cells were washed once with PBS, and the complex particle solutions each were added in a volume of 125 μL; the cells were cultured for 48 h, then a resulting culture supernatant was discarded, and the cells were fully lysed; and a substrate was added at 50 μl/well, and an expression level of luciferase was detected by a multi-mode microplate reader.

SMILES: CCCCCCCC/C=C\CCCCCCCC(=O)N(CCN(C)C)C(C(=O)NCCOCCOCCNC(=O)C(C(C)C)N(CCN(C)C)C(=O)CCCCCCC/C=C\CCCCCCCC)C(C)C (stereo not shown) [I2R1C18-1A1]
- transfection efficiency of GFP-expressing plasmid DNA, compared with commercial transfection reagent Lipofectamine 2000 (Hela cells [1]): reaches or is higher than; also recorded: equivalent to or higher than
- mRNA transfection efficiency (eGFP-mRNA), compared with Lipofectamine 2000 (DC 2.4 cells): high transfection efficiency; also recorded: equivalent to or higher than
- transfection efficiency of luciferase-expressing plasmid DNA, compared with Lipofectamine 2000 (Hela cells [2]): equivalent to or higher than

SMILES: CCCCCCCCCCCCCCCC(=O)N(CCCN(C)C)C(C(=O)NCCOCCOCCNC(=O)C(C(C)C)N(CCCN(C)C)C(=O)CCCCCCCCCCCCCCC)C(C)C (stereo not shown) [I2R2C16A1]
- cytotoxicity (cell viability by MTT) (Hela cells [3]): low cytotoxicity
- transfection efficiency of GFP-expressing plasmid DNA, compared with commercial transfection reagent Lipofectamine 2000 (Hela cells [1]): reaches or is higher than; also recorded: equivalent to or higher than
- mRNA transfection efficiency (eGFP-mRNA), compared with Lipofectamine 2000 (DC 2.4 cells): high transfection efficiency; also recorded: equivalent to or higher than
- transfection efficiency of luciferase-expressing plasmid DNA, compared with Lipofectamine 2000 (Hela cells [2]): equivalent to or higher than

SMILES: CCCCCCCC/C=C\CCCCCCCC(=O)N(CCCN(C)C)C(C(=O)NCCOCCOCCNC(=O)C(C(C)C)N(CCCN(C)C)C(=O)CCCCCCC/C=C\CCCCCCCC)C(C)C (stereo not shown) [I2R2C18-1A1]
- gene silencing efficiency as a function of material dosage (A549 cells (A549-Luc)): increases with the increase of a dosage
- siRNA transfection, silencing of the luciferase reporter gene (A549 cells (A549-Luc)): efficient gene silencing; also recorded: can transfect siRNA into cells to specifically silence the expression of the luciferase reporter gene
- transfection efficiency of GFP-expressing plasmid DNA, compared with commercial transfection reagent Lipofectamine 2000 (Hela cells [1]): reaches or is higher than; also recorded: equivalent to or higher than
- mRNA transfection efficiency (eGFP-mRNA), compared with Lipofectamine 2000 (DC 2.4 cells): high transfection efficiency; also recorded: equivalent to or higher than
- transfection efficiency of luciferase-expressing plasmid DNA, compared with Lipofectamine 2000 (Hela cells [2]): equivalent to or higher than

SMILES: CCCCC/C=C\C/C=C\CCCCCCCC(=O)N(CCCN(C)C)C(C(=O)NCCOCCOCCNC(=O)C(C(C)C)N(CCCN(C)C)C(=O)CCCCCCC/C=C\C/C=C\CCCCC)C(C)C (stereo not shown) [I2R2C18-2A1]
- gene silencing efficiency as a function of material dosage (A549 cells (A549-Luc)): increases with the increase of a dosage
- siRNA transfection, silencing of the luciferase reporter gene (A549 cells (A549-Luc)): efficient gene silencing; also recorded: can transfect siRNA into cells to specifically silence the expression of the luciferase reporter gene
- transfection efficiency of GFP-expressing plasmid DNA, compared with commercial transfection reagent Lipofectamine 2000 (Hela cells [1]): reaches or is higher than; also recorded: equivalent to or higher than
- mRNA transfection efficiency (eGFP-mRNA), compared with Lipofectamine 2000 (DC 2.4 cells): high transfection efficiency; also recorded: equivalent to or higher than
- transfection efficiency of luciferase-expressing plasmid DNA, compared with Lipofectamine 2000 (Hela cells [2]): equivalent to or higher than

SMILES: CCCCCCCCCCCCCCCCCC(=O)N(CCCN(C)C)C(C(=O)NCCOCCOCCNC(=O)C(C(C)C)N(CCCN(C)C)C(=O)CCCCCCCCCCCCCCCCC)C(C)C (stereo not shown) [I2R2C18A1]
- cytotoxicity (cell viability by MTT) (Hela cells [3]): low cytotoxicity
- mRNA transfection efficiency (eGFP-mRNA), compared with Lipofectamine 2000 (DC 2.4 cells): high transfection efficiency; also recorded: equivalent to or higher than

SMILES: CCCCCCCCCCCCCCCCCCCC(=O)N(CCCN(C)C)C(C(=O)NCCOCCOCCNC(=O)C(C(C)C)N(CCCN(C)C)C(=O)CCCCCCCCCCCCCCCCCCC)C(C)C (stereo not shown) [I2R2C20A1]
- cytotoxicity (cell viability by MTT) (Hela cells [3]): low cytotoxicity

SMILES: CCCCCCCCCCCCCCCC(=O)N(CCCN(CC)CC)C(C(=O)NCCOCCOCCNC(=O)C(C(C)C)N(CCCN(CC)CC)C(=O)CCCCCCCCCCCCCCC)C(C)C (stereo not shown) [I2R3C16A1]
- transfection efficiency of GFP-expressing plasmid DNA, compared with commercial transfection reagent Lipofectamine 2000 (Hela cells [1]): reaches or is higher than; also recorded: equivalent to or higher than
- mRNA transfection efficiency (eGFP-mRNA), compared with Lipofectamine 2000 (DC 2.4 cells): high transfection efficiency; also recorded: equivalent to or higher than
- transfection efficiency of luciferase-expressing plasmid DNA, compared with Lipofectamine 2000 (Hela cells [2]): equivalent to or higher than

SMILES: CCCCC/C=C\C/C=C\CCCCCCCC(=O)N(CCCN(CC)CC)C(C(=O)NCCOCCOCCNC(=O)C(C(C)C)N(CCCN(CC)CC)C(=O)CCCCCCC/C=C\C/C=C\CCCCC)C(C)C (stereo not shown) [I2R3C18-2A1]
- gene silencing efficiency as a function of material dosage (A549 cells (A549-Luc)): increases with the increase of a dosage
- siRNA transfection, silencing of the luciferase reporter gene (A549 cells (A549-Luc)): efficient gene silencing; also recorded: can transfect siRNA into cells to specifically silence the expression of the luciferase reporter gene
- transfection efficiency of GFP-expressing plasmid DNA, compared with commercial transfection reagent Lipofectamine 2000 (Hela cells [1]): reaches or is higher than; also recorded: equivalent to or higher than
- mRNA transfection efficiency (eGFP-mRNA), compared with Lipofectamine 2000 (DC 2.4 cells): high transfection efficiency; also recorded: equivalent to or higher than
- transfection efficiency of luciferase-expressing plasmid DNA, compared with Lipofectamine 2000 (Hela cells [2]): equivalent to or higher than

SMILES: CCCCCCCCCCCCCCCCCC(=O)N(CCCN(CC)CC)C(C(=O)NCCOCCOCCNC(=O)C(C(C)C)N(CCCN(CC)CC)C(=O)CCCCCCCCCCCCCCCCC)C(C)C (stereo not shown) [I2R3C18A1]
- transfection efficiency of GFP-expressing plasmid DNA, compared with commercial transfection reagent Lipofectamine 2000 (Hela cells [1]): reaches or is higher than; also recorded: equivalent to or higher than
- mRNA transfection efficiency (eGFP-mRNA), compared with Lipofectamine 2000 (DC 2.4 cells): high transfection efficiency; also recorded: equivalent to or higher than
- transfection efficiency of luciferase-expressing plasmid DNA, compared with Lipofectamine 2000 (Hela cells [2]): equivalent to or higher than

SMILES: CCCCC/C=C\C/C=C\CCCCCCCC(=O)N(CCC1CCCN1C)C(C(=O)NCCOCCOCCNC(=O)C(C(C)C)N(CCC1CCCN1C)C(=O)CCCCCCC/C=C\C/C=C\CCCCC)C(C)C (stereo not shown) [I2R11C18-2A1]
- transfection efficiency of GFP-expressing plasmid DNA, compared with commercial transfection reagent Lipofectamine 2000 (Hela cells [1]): reaches or is higher than; also recorded: equivalent to or higher than
- mRNA transfection efficiency (eGFP-mRNA), compared with Lipofectamine 2000 (DC 2.4 cells): high transfection efficiency; also recorded: equivalent to or higher than
- transfection efficiency of luciferase-expressing plasmid DNA, compared with Lipofectamine 2000 (Hela cells [2]): equivalent to or higher than
